The values below come from patent US9993465B2, “2,5-disubstituted-pyridyl nicotinic ligands, and methods of use thereof” (Georgetown University, priority 2011, dated 2018).

pKi: −log10 of the molar value. Where two headings read alike, the source gives them in different places.

The subject of one series is ferrets. Briefly: Emesis studies in ferrets. The series is classed as in vivo, ferret (Mustela putorius furo). As to the method:
Effects of (S)-15 in causing nausea and emesis were assessed in a ferret model. For comparison, varenicline was also tested. […] In general, all animals remained alert and active with periods of inactivity that mirrored their baseline behavior within the 1 hr observation period.
In one animal, this behavior was accompanied by oral stereotypy (licking), whereas in two animals it was interspersed by episodes of backward walking. On the average, these behaviors manifested around ˜2.20 min. […] Occasionally, when animals tried to ambulate they would immediately cease their movement after each attempt. This would, be followed by a momentary increase in breathing, giving the impression that the animal was in distress.
Studies were undertaken in male ferrets (Mustela putorius furo) weighing 0.9-1.5 kg (Marshall Farms, N.Y.). They were housed in controlled conditions of room temperature (22° C.) and light (12:12 h light-dark cycle) with free access to food and water. Prior to each experiment, food was withheld overnight, whereas water was provided ad libitum.
Emetic testing consisted of placing animals individually in a polycarbonate enclosure. Following a 30 min acclimation period, each animal randomly received a subcutaneus injection of varencline or compound (S)-15 (YL-1-127) in the subscapular region. A 60 min observation and video recording followed the drug administration. […] All drugs were dissolved in sterile saline.
Video analysis of the incidence of emesis, stereotypical behaviors (such as licking, mouth-clawing, backward walking, gagging, and burying of the head in cage) and GI side effects (diarrhea) was done off-line. Stereotypical behaviors are thought to be reflective of a subjective sensation of nausea. The emetic index of a drug was calculated as the percentage of animals displaying emesis (one or more times in 60 min) divided by the total number of animals tested. […]
The Nausea Index for the stereotypical behaviors was derived from the mean±SEM number of nausea behaviors observed among all animals in a given treatment group. Significance was determined at p<0.05.

Series [1] concerns the target native nAChRs of rat forebrain (Rattus norvegicus, UniProt P09483+P12390). The series is classed as binding. Particulars: Table 1. As to the method: (§1) To determine selectivities of these compounds in binding assays among the three predominant nAChR subtypes, α3β4, α4β2 and α7, the ratios of Ki values (α3β4/α4β2 and α7/α4β2) were determined.
Briefly, cultured cells at >80% confluence were removed from their flasks (80 cm^2) with a disposable cell scraper and placed in 10 mL of 50 mM Tris.HCl buffer (pH 7.4, 4° C.). The cell suspension was centrifuged at 10,000×g for 5 min and the pellet was collected. The cell pellet was then homogenized in 10 mL buffer with a polytron homogenizer and centrifuged at 36,000 g for 10 min at 4° C. The membrane pellet was resuspended in fresh buffer, and aliquots of the membrane preparation were used for binding assays. […] Bound and free ligands were separated by vacuum filtration through Whatman GF/C filters treated with 0.5% polyethylenimine. The filter-retained radioactivity was measured by liquid scintillation counting. Specific binding was defined as the difference between total binding and nonspecific binding. Data from competition binding assays were analyzed using Prism 5 (GraphPad Software, San Diego, Calif.).
We measured the in vitro binding affinities of the ligands for defined receptor subtypes (α2β2, α2β4, α3β2, α3β4, α4β2, α4Γ4, α6β2, α6β4, and α7) expressed in stably transfected cell lines. […] Rat forebrain homogenates were included to allow comparison between the heterologous and native α4β2 and α7 nAChRs.

The target of another series is human α4β2 nAChRs (Homo sapiens (Human), UniProt P17787+P43681). Put plainly: 86Rb+ efflux assay, agonist activity, α4β2. The series is classed as cell-based. How it is done: (§2) Their agonist activities were assessed by measuring stimulated ^86Rb^+ efflux from stably transfected cells, either expressing human α4β2 nAChRs or rat α3β4 receptors.
(§3) The cell lines expressing defined rat nAChR subtypes were established previously by stably transfecting HEK 293 cells with rat nAChR subunit genes. The cell line expressing human α4β2 nAChRs, YXα4β2H1, was established recently. These cell lines were maintained in minimum essential medium (MEM) supplemented with 10% fetal bovine serum, 100 units/mL penicillin G, […] and selective antibiotics at 37° C. with 5% CO2 in a humidified incubator. Fetal bovine serum was provided by Gemini Bio-Products (Woodland, Calif.). Tissue culture medium and antibiotics were obtained from Invitrogen Corporation (Carlsbad, Calif.), unless otherwise stated.
Functional properties of compounds at nAChRs expressed in the transfected cells were measured using ^86Rb^+ efflux assays as described previously. In brief, cells expressing human α4β2 or rat α3β4 nAChRs were plated into 24-well plates coated with poly-D-lysine. The plated cells were grown at 37° C. for 18 to 24 hour to reach 85-95% confluence. The cells were then incubated in growth medium (0.5 mL/well) containing ^86Rb^+ (2 μCi/mL) for 4 hour at 37° C. The loading mixture was then aspirated, and the cells were washed four times with 1 mL buffer (15 mM HEPES, 140 mM NaCl, 2 mM KCl, 1 mM MgSO4, 1.8 mM CaCl2, 11 mM Glucose, pH 7.4). One mL of buffer with or without compounds to be tested was then added to each well. After incubation for 2 min, the assay buffer was collected for measurements of ^86Rb^+ released from the cells. Cells were then lysed by adding 1 ml of 100 mM […] to each well, and the lysate was collected for determination of the amount of ^86Rb^+ that was in the cells at the end of the efflux assay. Radioactivity of assay samples and lysates was measured by liquid scintillation counting. Total loading (cpm) was calculated as the sum of the assay sample and the lysate of each well. The amount of ^86Rb^+ efflux was expressed as a percentage of ^86Rb^+ loaded. […] For obtaining EC50 and Emax values, stimulation curves were constructed in which 8 different concentrations of a ligand were included in the assay. […] EC50, Emax and IC50(10′) values were determined by nonlinear least-squares regression analyses (GraphPad, San Diego, Calif.).
The functional properties of the ligands were determined by ^86Rb^+ efflux assays in cells expressing α3β4 and α4β2 nAChR subtypes. The functional activity of each ligand was measured for its agonism, antagonism and desensitization ability. Agonist activity for each of the ligands was tested at eight different concentrations. […]

The target in another series is rat α3β4 nAChRs (Rattus norvegicus (Rat), UniProt P04757+P12392). Put plainly: 86Rb+ efflux assay, agonist activity, α3β4. It counts as cell-based. As to the method: as §2
The cell lines expressing defined rat nAChR subtypes were established previously by stably transfecting HEK 293 cells with rat nAChR subunit genes. The cell line expressing human α4β2 nAChRs, YXα4β2H1, was established recently. These cell lines were maintained in minimum essential medium (MEM) supplemented with 10% fetal bovine serum, 100 units/mL penicillin G, […] and selective antibiotics at 37° C. with 5% CO2 in a humidified incubator. Fetal bovine serum was provided by Gemini Bio-Products (Woodland, Calif.). […]
Functional properties of compounds at nAChRs expressed in the transfected cells were measured using ^86Rb^+ efflux assays as described previously. […] Radioactivity of assay samples and lysates was measured by liquid scintillation counting. Total loading (cpm) was calculated as the sum of the assay sample and the lysate of each well. The amount of ^86Rb^+ efflux was expressed as a percentage of ^86Rb^+ loaded. […] EC50, Emax and IC50(10′) values were determined by nonlinear least-squares regression analyses (GraphPad, San Diego, Calif.).
The functional properties of the ligands were determined by ^86Rb^+ efflux assays in cells expressing α3β4 and α4β2 nAChR subtypes. […]

In a further series the target is rat α4β2 nAChR (Rattus norvegicus (Rat), UniProt P09483+P12390). The series is classed as binding. Particulars: versus Sazetidine-A. How it is done:
as §1, §3
Briefly, cultured cells at >80% confluence were removed from their flasks (80 cm^2) with a disposable cell scraper and placed in 10 mL of 50 mM Tris.HCl buffer (pH 7.4, 4° C.). […] The filter-retained radioactivity was measured by liquid scintillation counting. […] Data from competition binding assays were analyzed using Prism 5 (GraphPad Software, San Diego, Calif.).
We measured the in vitro binding affinities of the ligands for defined receptor subtypes (α2β2, α2β4, α3β2, α3β4, α4β2, α4Γ4, α6β2, α6β4, and α7) expressed in stably transfected cell lines. […]

Regarding `CCCCC#Cc1cnc(C)c(OC[C@@H]2CCN2)c1` [(S)-15, (S)-3-(azetidin-2-ylmethoxy)-5-(hex-1-ynyl)-2-methylpyridine], the “emetic episodes or stereotypical behaviors indicative of nausea” value in the series with ferrets (1-30 mg/kg s.c., 1 hr observation) is “did not elicit any emetic episodes or stereotypical behaviors that are indicative of nausea”. This molecule also showed a pKi in series [1] of 7.28.

For the molecule `CCCCC#Cc1cnc(C)c(OC[C@H]2CCN2)c1` [(R)-15, (R)-3-(azetidin-2-ylmethoxy)-5-(hex-1-ynyl)-2-methylpyridine], in series [1], the pKi is 5.37.

With `Cc1ncc(C#CCCCCCl)cc1OC[C@@H]1CCN1` [(S)-21, (S)-3-(azetidin-2-ylmethoxy)-5-(6-chlorohex-1-ynyl)-2-methylpyridine], the “agonist activity at α4β2 nAChRs” value at human α4β2 nAChRs (result in words) is on record as “didn't show detectable agonist activity”. Also, the pKi in series [1] was 7.49.

In series [1], `OCCCCC#Cc1cncc(OC[C@@H]2CCN2)c1` [Sazetidine-A, reference compound] had a pKi of 9.77.

In the case of `CN1CCC[C@H]1c1cccnc1` [(−)-Nicotine, (−)-nicotine, reference compound], the “agonist activity at α4β2 nAChRs” value at human α4β2 nAChRs was “full agonist activities”. The “agonist activity at α3β4 nAChRs” value on rat α3β4 nAChRs is “full agonist activities”.

Consider `Cc1ncc(C#CCCCCF)cc1OC[C@@H]1CCN1` [(S)-22, (S)-3-(azetidin-2-ylmethoxy)-5-(6-fluorohex-1-ynyl)-2-methylpyridine], for which, on human α4β2 nAChRs (result in words), the “agonist activity at α4β2 nAChRs” value is given as “didn't show detectable agonist activity”.

Consider `CCCCC#Cc1cnc(C)c(OC[C@@H]2CCCN2)c1` [(S)-16, (S)-5-(hex-1-ynyl)-2-methyl-3-(pyrrolidin-2-ylmethoxy)pyridine], for which the “agonist activity at α4β2 nAChRs” value at human α4β2 nAChRs (result in words) was “didn't show detectable agonist activity”. In series [1], the pKi was 6.27.

In the case of `Cc1ncc(C#CC2CC2)cc1OC[C@@H]1CCN1` [(S)-27, (S)-3-(azetidin-2-ylmethoxy)-5-(cyclopropylethynyl)-2-methylpyridine], the pKi in series [1] was 7.51.

`CCCCC#Cc1cnc(C)c(OC[C@H]2CCCN2)c1` [(R)-16, (R)-5-(hex-1-ynyl)-2-methyl-3-(pyrrolidin-2-ylmethoxy) pyridine] gave a pKi in series [1] of 3.96.

Molecule `Cc1ncc(C#CCCCCO)cc1OC[C@@H]1CCN1` [(S)-17, (S)-6-(5-(azetidin-2-ylmethoxy)-6-methylpyridin-3-yl)hex-5-yn-1-ol] gave a pKi in series [1] of 7.96. Further, at rat α4β2 nAChR, the “reduction in binding affinity for α4β2 nAChRs” value is 70 fold.

`c1cnc2cc3c(cc2n1)[C@@H]1CNC[C@H]3C1` [Varenicline, varenicline]: in the series on ferrets (0.5 mg/kg s.c.), the emetic episodes result is recorded as “no emetic episodes were observed” and the “time at which nausea behaviors manifested, on the average” value was about 2.20 min. Moreover, in series [1], the negative-log Ki (pKi) was 8.96.
